From patent US7060821B2, “Osteoclast differentiation inhibitors” (Mercian Corporation, priority 2002, dated 2006)
Converted amounts (≈) assume the structure as drawn.

What was measured:
L1210 (leukemia) = assay: Growth inhibition (MTT) of L1210 cells; type: cell-based, murine; details: Mus musculus, 48 hours, read-out: 50% growth inhibition concentration
Description: (§1) Note that the tests were performed as follows. Various kinds of murine cancer cells (L1210 (leukemia)), Colon 26 (colon cancer), B16BL6 (malignant melanoma)) were suspended in RPMI1640 medium containing 10% fetal calf serum and adjusted to 2×10^4 cells/well and 0.1 ml of each of the suspensions was seeded on a 96-well plate. At the same time, a predetermined amount of the substance F-1490 was added and the resultants were cultivated at 37° C. for 48 hours in the air containing 5% CO2. Further, 10 μl of 0.5% MTT (3-[4,5-dimethylthiazol-2-yl] […] tetrazolium bromide) was added and the resultants were cultivated for 4 hours. After the cultivation, 0.1 ml of 10% SDS-0.01N hydrochloric acid was added and absorbance at 570 nm was measured to determine 50% growth inhibition concentration.

[1] = tested on: B16BL6 (malignant melanoma); assay: Growth inhibition (MTT) of B16BL6 cells; type: cell-based, murine; details: Mus musculus, B16-BL6, 48 hours, read-out: 50% growth inhibition concentration
Description: as §1

[2] = tested on: bone marrow cells (differentiation into osteoclasts); assay: Osteoclast differentiation inhibition: count of tartaric acid-resistant acid phosphatase-positive cells; type: cell-based, C57BL/6 mouse
Description: Bone marrow cells were collected from a C57BL/6mouse (female, 6 weeks old) and suspended in RPMI1460 medium that contains 10% fetal calf serum, 1 mM pyruvic acid, 0.1 mM non-essential amino acids (manufactured by Gibco), 500 μM 2-mercaptoethanol, 200 ng/ml parathyroid hormone related protein (PTHrP) and 50 μg/ml L-ascorbic acid and 1 ml of the suspension adjusted to a cell population of 1.5×10^6 cells/well was inoculated on a 24-well microplate. At the same time a test sample was added in appropriate amounts. On days 2 and 4 from the start of the cultivation, half the amount of the medium is exchanged with fresh medium containing the test sample. On day 7 from the start of the cultivation, the medium is removed by suction and the cells are fixed with an acetone:methanol (1:1) solution, to thereby allow tartaric acid-resistant acid phosphatase-positive cells stained. That is, 0.4 ml of a 0.2-M acetate buffer (pH 5.2) containing a staining fluid (0.1 mg/ml Naphthol AS-MX phosphate (Sigma AB), 0.6 mg/ml Fast red violet LB sal (Sigma AB) and 20 mM tartaric acid is added to each well and the resultants are allowed to react at 37° C. for 1 hour. After color development, the number of tartaric acid-resistant acid phosphatase-positive cells, which is an index of differentiation into osteoclasts, is measured under a microscope.
When the test sample contains a substance that is effective for inhibition of osteoclast differentiation, the occurrence of tartaric acid-resistant acid phosphatase-positive cells is inhibited. From changes in the above-mentioned number of cells depending on the concentration of the test sample, an effective concentration range of the test sample can be obtained.

Colon 26 (colon cancer) = assay: Growth inhibition (MTT) of Colon 26 cells; type: cell-based, murine; details: Mus musculus, Colon26 cells, 48 hours, read-out: 50% growth inhibition concentration
Description: as §1

IC50 (L1210 (leukemia)): > 50 µg/mL
IC50 [1]: > 50 µg/mL
IC50 (Colon 26 (colon cancer)): > 50 µg/mL
SMILES: O=C(O)c1cccc2c1NC1CCCCC1(O)O2 (centres unmarked) [Substance F-1490-A]
IC50 ([2]; Mus musculus, Table 1, osteoclast differentiation test, read-out: 50% growth inhibition concentration): 0.65 µg/mL (≈ 2.61 µM)
inhibition at 0.2 µg/mL ([2]; Osteoclast, 168 h, concentration 0.20 μg/ml, day 7, PTHrP-stimulated mouse bone marrow cells, read-out: Inhibition rate of differentiation into osteoclasts (%)): 2%
inhibition at 0.78 µg/mL ([2]; Osteoclast, 168 h, concentration 0.78 μg/ml, day 7, PTHrP-stimulated mouse bone marrow cells, read-out: Inhibition rate of differentiation into osteoclasts (%)): 63%
inhibition at 3.1 µg/mL ([2]; Osteoclast, 168 h, concentration 3.10 μg/ml, day 7, PTHrP-stimulated mouse bone marrow cells, read-out: Inhibition rate of differentiation into osteoclasts (%)): 74%
inhibition at 12.5 µg/mL ([2]; Osteoclast, 168 h, concentration 12.50 μg/ml, day 7, PTHrP-stimulated mouse bone marrow cells, read-out: Inhibition rate of differentiation into osteoclasts (%)): 87%
